Laboratory results from US20020025303A1, “COSMETIC AND/OR DERMATOLOGICAL COMPOSITION CONTAINING A DERIVATIVE OF METHYLATED SILANOL AND A DERIVATIVE OF HYDROLYSED PLANT PROTEIN” (priority 1997, published 2002).

Tested on: normal human fibroblasts (NHDF 784)
Assay: Synthesis of collagen by human fibroblast cultures (radiolabelled proline incorporation)
Format: cell-based
Conditions: 72 h incubation, 1/40 dilutions of stock preparations, vitamin C 20 μg/ml, FIG. 4
Description: The effect of a composition of the present invention (comprising two anti-glycosylation agents with magnesium ascorbyl phosphate) on the stimulation of the synthesis of collagen and the limitation of the formation of irreversible cross linkages between the collagen fibrils, were evaluated in vitro on human fibroblast cells. […] Glucose was tested in a final concentration of 0.1 percent, which is equivalent to doubling the quantity of 'cold' glucose of the medium. […] They contained free radioactivity and radioactivity incorporated in the soluble cellular and extracellular proteins. […] The proteins of the soluble fraction were then precipitated by 0.3 volume of 10 percent w/v trichloroacetic acid (TCA), and then washed twice with 3 percent TCA (removal of free radioactivity). […] Aliquots were taken to count the incorporated radioactivity in the proteins and a final precipitation was carried out with TCA to separate the material digested by collagenase (collagenic origin) from the collagenase-insensitive material. The incorporated radioactivity was counted by liquid scintillation after cumulation of the soluble/insoluble protein fractions, in an LKB 1211 Rackbeta counter.

| Compound | synthesis of collagen (quantity of radiolabelled proline in the neosynthesized collagen) |
| --- | --- |
| O=C1O[C@H]([C@@H](O)CO)C([O-])=C1OP(=O)([O-])[O-].O=C1O[C@H]([C@@H](O)CO)C([O-])=C1OP(=O)([O-])[O-].[Mg+2].[Mg+2].[Mg+2] [magnesium ascorbyl phosphate] | significantly increased |
| O=C1O[C@H]([C@@H](O)CO)C(O)=C1O [vitamin C] | significantly increased |
